Experiment [1] addresses PDGFRβ (purified cytoplasmic domain PDGFR-b protein) (Homo sapiens (Human), UniProt P09619). The experiment can be described thus: PDGFRβ Kinase Assay (biochemical, ELISA). As to conditions: 36 μM ATP, 60 minute incubation at 30° C.; read-out: PDGFRβ Enzyme Assay (IC50 nM). As to the method:
(§1) Biochemical PDGFRβ kinase assays were performed in 96 well microtiter plates that were coated overnight with 75 μg of poly-Glu-Tyr (4:1) in 10 mM Phosphate Buffered Saline (PBS), pH 7.4. The coated plates were washed with 2 mls per well PBS+0.05% Tween-20 (PBS-T), blocked by incubation with PBS containing 1% BSA, then washed with 2 mls per well PBS-T prior to starting the reaction. Reactions were carried out in 100 μL reaction volumes containing 36 μM ATP in kinase buffer (50 mM Hepes buffer pH 7.4, 20 mM MgCl2, 0.1 mM MnCl2 and 0.2 mM Na3VO4). Test compounds were reconstituted in 100% DMSO and added to the reaction to give a final DMSO concentration of 5%. Reactions were initiated by the addition 20 ul per well of kinase buffer containing 200-300 ng purified cytoplasmic domain PDGFR-b protein (Millipore). Following a 60 minute incubation at 30° C., the reactions were washed 2 mls per well PBS-T. 100 μl of a monoclonal anti-phosphotyrosine antibody-peroxidase conjugate diluted 1:10,000 in PBS-T was added to the wells for 30 minutes. Following a 2 mls per well wash with PBS-Tween-20, 100 μl of O-Phenylenediamine Dihydrochloride in phosphate-citrate buffer, containing urea hydrogen peroxide, was added to the wells for 7-10 minutes as a colorimetric substrate for the peroxidase. The reaction was terminated by the addition of 100 μl of 2.5NH2SO4 to each well and read using a microplate ELISA reader set at 492 nm. IC50 values for compound inhibition were calculated directly from graphs of optical density (arbitrary units) versus compound concentration following subtraction of blank values.
For orientation: ELISA stands for enzyme-linked immunosorbent assay.

Experiment [2] concerns the target VEGFR2 (purified cytoplasmic domain KDR protein) (Homo sapiens (Human), UniProt P35968). Briefly: VEGFR2 Kinase Assay (biochemical KDR kinase assay, ELISA). As to conditions: 2.7 μM ATP, 15 minute incubation at 30° C.; read-out: VEGFR2 Enzyme Assay (IC50 nM). The method, then: as §1, with “KDR” for “PDGFRβ”, “μg/well” for “μg”, “Reactions were carried out in 100 μL reaction volumes containing 36 μM ATP in kinase buffer (50 mM Hepes buffer pH 7.4, 20 mM MgCl2, 0.1 mM MnCl2 and 0.2 mM Na3VO4). Test compounds were reconstituted in 100% DMSO and added to the reaction to give a final DMSO concentration of 5%.” left out, “KDR” for “PDGFR-b”, “(BPS Bioscience, San Diego, Calif.).” for “(Millipore).”, “15” for “60”

For experiment [3], the target named is VEGFR1 (Homo sapiens (Human), UniProt P17948). Briefly: VEGFR1 Enzyme Assay. The experiment is classed as biochemical.

This is an account of results in patent publication US8969583B2, “3-phenyl-5-ureidoisothiazole-4-carboximide and 3-amino-5-phenylisothiazole derivatives as kinase inhibitors” (Allergan, Inc., priority 2011, dated 2015).

Chain of PDGFRβ (purified cytoplasmic domain PDGFR-b protein) (P09619 554-1106): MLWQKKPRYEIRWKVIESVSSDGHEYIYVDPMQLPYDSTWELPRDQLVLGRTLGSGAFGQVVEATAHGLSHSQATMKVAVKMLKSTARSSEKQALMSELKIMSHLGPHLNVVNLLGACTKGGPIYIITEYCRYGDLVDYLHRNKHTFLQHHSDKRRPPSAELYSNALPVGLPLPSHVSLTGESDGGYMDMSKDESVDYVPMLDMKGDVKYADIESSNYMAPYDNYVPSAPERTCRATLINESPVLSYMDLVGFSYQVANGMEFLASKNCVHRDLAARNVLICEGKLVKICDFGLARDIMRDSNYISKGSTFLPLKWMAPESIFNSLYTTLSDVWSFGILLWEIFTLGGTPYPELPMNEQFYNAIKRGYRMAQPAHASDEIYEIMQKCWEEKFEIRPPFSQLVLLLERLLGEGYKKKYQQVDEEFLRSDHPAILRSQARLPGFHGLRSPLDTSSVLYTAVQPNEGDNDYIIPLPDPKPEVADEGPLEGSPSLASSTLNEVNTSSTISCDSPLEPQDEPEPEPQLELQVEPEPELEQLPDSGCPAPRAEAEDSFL
Chain of VEGFR1 (P17948 27-1338, species assumed): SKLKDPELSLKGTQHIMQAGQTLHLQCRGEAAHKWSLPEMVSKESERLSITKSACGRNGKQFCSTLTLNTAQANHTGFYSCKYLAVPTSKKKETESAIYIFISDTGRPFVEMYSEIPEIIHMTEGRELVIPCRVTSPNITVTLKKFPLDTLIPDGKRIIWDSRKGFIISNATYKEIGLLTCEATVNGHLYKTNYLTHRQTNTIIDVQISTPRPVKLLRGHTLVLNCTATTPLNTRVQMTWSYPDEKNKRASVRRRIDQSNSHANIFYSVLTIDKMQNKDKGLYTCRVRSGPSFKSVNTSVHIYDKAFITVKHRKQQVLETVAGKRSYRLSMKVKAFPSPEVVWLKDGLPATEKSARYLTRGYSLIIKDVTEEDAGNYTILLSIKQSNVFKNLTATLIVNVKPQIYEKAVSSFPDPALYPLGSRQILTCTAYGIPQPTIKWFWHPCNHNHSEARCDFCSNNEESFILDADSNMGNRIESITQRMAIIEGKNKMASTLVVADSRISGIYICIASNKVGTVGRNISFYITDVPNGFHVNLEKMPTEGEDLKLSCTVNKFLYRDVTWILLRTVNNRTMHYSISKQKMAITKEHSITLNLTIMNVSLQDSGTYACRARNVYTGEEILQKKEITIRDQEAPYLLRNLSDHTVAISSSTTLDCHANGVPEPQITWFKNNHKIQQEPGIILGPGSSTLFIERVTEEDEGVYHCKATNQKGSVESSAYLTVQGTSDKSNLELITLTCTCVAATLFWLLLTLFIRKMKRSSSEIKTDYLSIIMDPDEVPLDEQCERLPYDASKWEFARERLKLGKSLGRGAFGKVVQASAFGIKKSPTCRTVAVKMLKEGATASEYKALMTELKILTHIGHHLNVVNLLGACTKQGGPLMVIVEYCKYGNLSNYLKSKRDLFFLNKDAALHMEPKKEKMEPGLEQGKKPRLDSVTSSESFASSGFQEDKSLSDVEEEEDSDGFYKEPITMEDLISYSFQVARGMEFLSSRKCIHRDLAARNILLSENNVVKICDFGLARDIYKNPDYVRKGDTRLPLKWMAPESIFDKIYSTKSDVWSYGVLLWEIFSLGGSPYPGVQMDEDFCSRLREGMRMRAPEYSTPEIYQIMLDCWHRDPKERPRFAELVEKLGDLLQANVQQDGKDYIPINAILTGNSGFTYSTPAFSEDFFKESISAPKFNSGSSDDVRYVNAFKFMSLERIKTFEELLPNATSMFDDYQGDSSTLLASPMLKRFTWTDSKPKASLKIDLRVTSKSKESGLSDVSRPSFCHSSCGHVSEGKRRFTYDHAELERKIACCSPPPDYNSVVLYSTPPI
Chain of VEGFR2 (purified cytoplasmic domain KDR protein) (P35968 786-1356): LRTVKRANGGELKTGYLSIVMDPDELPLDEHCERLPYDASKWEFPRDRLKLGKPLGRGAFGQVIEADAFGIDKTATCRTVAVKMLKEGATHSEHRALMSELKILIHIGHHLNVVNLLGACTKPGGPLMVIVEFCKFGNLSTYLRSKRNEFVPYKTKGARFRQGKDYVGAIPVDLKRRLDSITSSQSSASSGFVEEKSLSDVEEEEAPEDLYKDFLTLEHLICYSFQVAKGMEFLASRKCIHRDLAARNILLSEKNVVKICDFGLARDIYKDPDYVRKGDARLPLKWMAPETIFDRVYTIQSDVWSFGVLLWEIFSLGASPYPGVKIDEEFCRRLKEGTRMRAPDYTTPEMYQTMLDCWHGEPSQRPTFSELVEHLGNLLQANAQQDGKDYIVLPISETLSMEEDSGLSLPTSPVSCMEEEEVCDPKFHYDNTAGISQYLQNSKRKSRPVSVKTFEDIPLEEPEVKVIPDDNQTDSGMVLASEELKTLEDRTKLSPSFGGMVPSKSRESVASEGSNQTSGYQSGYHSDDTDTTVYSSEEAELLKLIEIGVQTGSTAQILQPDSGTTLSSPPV

In general, IC50 refers to the midpoint of a concentration-inhibition curve. Regarding `NC(=O)c1c(-c2cccc(NC(=O)c3cccc(C(F)(F)F)c3)c2)nsc1N` [Example 64, 5-Amino-3-(3-{[3-(trifluoromethyl)benzoyl]amino}phenyl)isothiazole-4-carboxamide], in experiment [1], the IC50 amounted to 844 nM.
Turning to `NC(=O)c1c(-c2ccc(N)cc2)nsc1NC(=O)NCCCN1CCCC1` [Example 67, 3-(4-Aminophenyl)-5-({[(3-pyrrolidin-1-ylpropyl)amino]carbonyl}amino)isothiazole-4-carboxamide], the 50% inhibitory concentration (IC50) in experiment [2] is more than 1000 nM.
As for `NC(=O)c1c(-c2ccc([N+](=O)[O-])cc2)nsc1NC(=O)N1CCCC1=O` [Example 45, 3-(4-Nitro-phenyl)-5-[(2-oxo-pyrrolidine-1-carbonyl)-amino]-isothiazole-4-carboxylic acid amide], the IC50 in experiment [2] was more than 10000 nM.
As for `Cc1ccc(F)c(NC(=O)Nc2ccc(-c3snc(NCCCN4CCOCC4)c3C(N)=O)cc2)c1` [Example 70, 5-[4-({[(2-Fluoro-5-methylphenyl)amino]carbonyl}amino)phenyl]-3-[(3-morpholin-4-ylpropyl)amino]isothiazole-4-carboxamide], the IC50 in experiment [1] worked out at 70 nM.
For the molecule `NC(=O)c1c(-c2cccc(N)c2)nsc1N` [Example 62, 5-Amino-3-(3-aminophenyl)isothiazole-4-carboxamide], in experiment [2], the half-inhibitory concentration (IC50) was more than 10000 nM.
Turning to `Cc1ccc(NC(=O)Nc2ccc(-c3nsc(N)c3C(N)=O)cc2)cc1` [Example 59, 5-Amino-3-[4-({[(4-methylphenyl)amino]carbonyl}amino)phenyl]isothiazole-4-carboxamide], the IC50 in experiment [1] was 60 nM.
On the same count and under the same terms, under `Cc1ccc(NC(=O)Nc2ccc(-c3nsc(NC(=O)NCCCO)c3C(N)=O)cc2)cc1` [Example 56, 5-({[(3-Hydroxypropyl)amino]carbonyl}amino)-3-[4-({[(4-methylphenyl)amino]carbonyl}amino)phenyl]isothiazole-4-carboxamide] stands 13 nM; under `Cc1ccc(F)c(NC(=O)Nc2ccc(-c3nsc(N)c3C(N)=O)cc2)c1` [Example 60, 5-Amino-3-[4-({[(2-fluoro-5-methylphenyl)amino]carbonyl}amino)phenyl]isothiazole-4-carboxamide], 70 nM.
On the same count and under the same terms, as for `Cc1ccc(F)c(NC(=O)Nc2ccc(-c3nsc(NC(=O)NCCCN4CCOCC4)c3C(N)=O)cc2)c1` [Example 4, 3-[4-({[(2-fluoro-5-methylphenyl)amino]carbonyl}amino)phenyl]-5-({[(3-morpholin-4-ylpropyl)amino]carbonyl}amino)isothiazole-4-carboxamide], the figure is 47 nM; as for `Cc1ccc(NC(=O)Nc2ccc(-c3nsc(NC(=O)NCCCC(=O)O)c3C(N)=O)cc2)cc1` [Example 48, 4-{[({4-(Aminocarbonyl)-3-[4-({[(4-methylphenyl)amino]carbonyl}amino)phenyl]isothiazol-5-yl}amino)carbonyl]amino}butanoic acid], 10 nM.
Consider `NC(=O)c1c(-c2ccc(N)cc2)nsc1N` [Example 58, 5-Amino-3-(4-aminophenyl)isothiazole-4-carboxamide], for which the half-maximal inhibitory concentration (IC50) in experiment [2] is more than 10000 nM.
With `Cc1ccc(F)c(NC(=O)Nc2ccc(-c3snc(N)c3C(N)=O)cc2)c1` [Example 69, 3-Amino-5-[4-({[(2-fluoro-5-methylphenyl)amino]carbonyl}amino)phenyl]isothiazole-4-carboxamide], the IC50 in experiment [1] came out at 48 nM.
For the molecule `NC(=O)c1c(-c2cccc(NC(=O)Nc3ccccc3)c2)nsc1N` [Example 65, 5-Amino-3-{3-[(anilinocarbonyl)amino]phenyl}isothiazole-4-carboxamide], the 50% inhibitory concentration (IC50) is more than 1000 nM in experiment [1] and more than 10000 nM in experiment [2].
On to `NC(=O)c1c(-c2cccc([N+](=O)[O-])c2)nsc1N` [Example 61, 5-Amino-3-(3-nitrophenyl)isothiazole-4-carboxamide], for which the half-maximal inhibitory concentration (IC50) in experiment [2] is more than 10000 nM.
For `NC(=O)c1c(-c2ccc(NC(=O)Nc3cc(C(F)(F)F)ccc3F)cc2)nsc1NC(=O)NCCCN1CCOCC1` [Example 6, 3-{4-[({[2-fluoro-5-(trifluoromethyl)phenyl]amino}carbonyl)amino]phenyl}-5-({[(3-morpholin-4-ylpropyl)amino]carbonyl}amino)isothiazole-4-carboxamide], in experiment [1], the IC50 amounted to 24 nM.
Still for that read-out and setting: as for `NC(=O)c1c(-c2ccc(N)cc2)nsc1NC(=O)NCCCN1CCOCC1` [Example 2, 3-(4-aminophenyl)-5-({[(3-morpholin-4-ylpropyl)amino]carbonyl}amino)isothiazole-4-carboxamide], the figure is more than 10000 nM; as for `Cc1cccc(NC(=O)Nc2ccc(-c3nsc(NC(=O)NCCCN4CCOCC4)c3C(N)=O)cc2)c1` [Example 5, 3-[4-({[(3-methylphenyl)amino]carbonyl}amino)phenyl]-5-({[(3-morpholin-4-ylpropyl)amino]carbonyl}amino)isothiazole-4-carboxamide], 10 nM.
As to `NC(=O)c1c(-c2ccc(NC(=O)c3cccc(C(F)(F)F)c3)cc2)nsc1NC(=O)NCCCN1CCOCC1` [Example 11, 5-({[(3-morpholin-4-ylpropyl)amino]carbonyl}amino)-3-(4-{[3-(trifluoromethyl)benzoyl]amino}phenyl)isothiazole-4-carboxamide], the IC50 in experiment [1] and in experiment [3] was more than 1000 nM each time.
For `NC(=O)c1c(-c2ccc([N+](=O)[O-])cc2)nsc1NC(=O)NCCCN1CCOCC1` [Example 1, 5-({[(3-morpholin-4-ylpropyl)amino]carbonyl}amino)-3-(4-nitrophenyl)isothiazole-4-carboxamide], the concentration for half-maximal inhibition (IC50) in experiment [1], in experiment [2] and in experiment [3] was more than 10000 nM each time.
For `Cc1ccc(NC(=O)Nc2ccc(-c3nsc(NC(=O)NCCCN4CCCC4)c3C(N)=O)cc2)cc1` [Example 68, 3-[4-({[(4-Methylphenyl)amino]carbonyl}amino)phenyl]-5-({[(3-pyrrolidin-1-ylpropyl)amino]carbonyl}amino)isothiazole-4-carboxamide], the IC50 in experiment [1] was determined as 12 nM.
Take `Cc1ccc(NC(=O)Nc2ccc(-c3nsc(NC(=O)NCCCN4CCOCC4)c3C(N)=O)cc2)cc1` [Example 7, 3-[4-({[(4-methylphenyl)amino]carbonyl}amino)phenyl]-5-({[(3-morpholin-4-ylpropyl)amino]carbonyl}amino)isothiazole-4-carboxamide]: in experiment [1], the IC50 is 12 nM.
Still for that read-out and setting: under `NC(=O)c1c(-c2ccc(NC(=O)Nc3ccccc3)cc2)nsc1NC(=O)NCCCN1CCOCC1` [Example 3, 3-{4-[(anilinocarbonyl)amino]phenyl}-5-({[(3-morpholin-4-ylpropyl)amino]carbonyl}amino)isothiazole-4-carboxamide] stands 21 nM.
As for `COCCCNC(=O)Nc1snc(-c2ccc(N)cc2)c1C(N)=O` [Example 9, 3-(4-aminophenyl)-5-({[(3-methoxypropyl)amino]carbonyl}amino)isothiazole-4-carboxamide], the IC50 in experiment [1] was more than 10000 nM; in experiment [3], more than 1000 nM.
